This note sets out measurements from patent US20260152503A1, “SPIROBICYCLIC COMPOUNDS” (ACERAND THERAPEUTICS (HONG KONG) LIMITED, priority 2022, published 2026).

Assay type in all cases: cell-based
The target in one assay is T1, FGFR2 (Homo sapiens, UniProt P21802, K310R/N549K).
T1 construct: in FGFR aberrations of AN3CA (FGFR2/k310R, N549K); host or cells: AN3CA
Briefly: pERK potency assay (In Cell ELISA), AN3CA cells. The following applies: for IC50: pERK, AN3CA (FGFR2/k310R, N549K) cells, 3 hours; for FGFR1 IC50/FGFR2 IC50 / FGFR3 IC50/FGFR2 IC50: selectivity ratio, pERK potency; for FGFR1 IC50/FGFR2 IC50: FGFR2 relative to FGFR1; for FGFR3 IC50/FGFR2 IC50: FGFR2 relative to FGFR3. An excerpt:
(§1) The purpose of this assay is to measure the ability of test compounds to inhibit FGFR mediated downstream signaling cascades, i.e., ERK phosphorylation in cells with FGFR aberrations. FGFR aberrations become constitutively active and thus induces cascades of cellular signaling events that result in increased phosphorylation of ERK at Threonine 202 and Tyrosine 204 (pERK). The procedure called In Cell ELISA described below measures the level of cellular pERK in response to FGFR specific inhibitor compounds in FGFR aberrations of AN3CA (FGFR2/k310R, N549K), DMS114 (FGFR1 amplification), RT112 (FGFR3 overexpression/FGFR3-TACC3 fusion) and Hep3B (FGF19 amplification) cells. AN3CA, DMS114 and Hep3B cells are from ATCC. RT112 cells are from Sigma. DMS114 cells are grown and maintained using RPMI-1640 medium supplemented with 10% heat-inactivated fetal bovine serum. AN3CA, Hep3B and RT112 cells are grown and maintained using DMEM supplemented with 10% heat-inactivated fetal bovine serum. On the day before test compound addition, cells are plated in poly-D-lysine coated 96-well cell culture plates (Corning® BioCoat® Cat #356640) at 40000 cells/well/100 μL and grown overnight in a 37° C., 5% CO2 incubator. Test compounds are prepared with 4-fold serial dilutions in DMSO, with a top concentration of 10 μM. On the day of the assay, 50 μL of test compound diluted in media was added to each well of cell culture plate with the final concentration of compounds spanning from 0.000038 μM to 10 μM. After compound addition, cells are incubated for 3 hours at 37° C., 5% CO2 and then the culture medium is removed. Cells are fixed with 4% formaldehyde in phosphate-buffered saline (PBS) and incubated at RT for 20 min. The plate is then washed three times with PBST (PBS with 0.05% tween-20), followed by the incubation with 100 μL of pre-cooled methanol at −20° C. for 20 min. After incubation, methanol is removed, and the plate is washed once with PBST. Cells are permeabilized with 100 µL/well of 0.1% Triton X-100 in PBS at RT for 20 min and then quenched with quenching buffer (PBST containing 1% H2O2 and 0.1% sodium azide) for 20 min at RT with gentle shaking. After washing once with PBST, blocking buffer (250 ul/well, Pierce™ Protein-Free-PBS Blocking Buffer, Cat #37572) was then added to the cells for 1-h incubation at RT, followed by anti-pERK antibody (cell signaling, 1:1000 dilution in 5% BSA in PBST) incubation overnight at 4° C. and secondary antibody-HRP (Jackson immunoresearch, 1:3000 dilution in 5% BSA in PBST) incubation at RT for 1 h. PBST wash is carried out after each step three times. Before the addition of the substrate (Advansta ELISABright), the plate is washed with PBS twice to remove detergent residues. Cellular pERK level is determined using the microplate reader (Biotek Synergy H1) to detect the chemiluminescence signal. IC50 is determined by fitting a 4-parameter sigmoidal concentration-response model. FGFR wild type cells (H1975, PC-9 and AGS) are used to serve as negative control (FGFR selectivity) with the same assay procedures described above.
A general note: An ELISA detects its analyte on a solid surface through an enzyme-linked reagent.

For the next assay, the target named is T2, FGFR1 (Homo sapiens, UniProt P11362).
T2 construct: DMS114 (FGFR1 amplification); host or cells: DMS114
T2 sequence (P11362 22-822): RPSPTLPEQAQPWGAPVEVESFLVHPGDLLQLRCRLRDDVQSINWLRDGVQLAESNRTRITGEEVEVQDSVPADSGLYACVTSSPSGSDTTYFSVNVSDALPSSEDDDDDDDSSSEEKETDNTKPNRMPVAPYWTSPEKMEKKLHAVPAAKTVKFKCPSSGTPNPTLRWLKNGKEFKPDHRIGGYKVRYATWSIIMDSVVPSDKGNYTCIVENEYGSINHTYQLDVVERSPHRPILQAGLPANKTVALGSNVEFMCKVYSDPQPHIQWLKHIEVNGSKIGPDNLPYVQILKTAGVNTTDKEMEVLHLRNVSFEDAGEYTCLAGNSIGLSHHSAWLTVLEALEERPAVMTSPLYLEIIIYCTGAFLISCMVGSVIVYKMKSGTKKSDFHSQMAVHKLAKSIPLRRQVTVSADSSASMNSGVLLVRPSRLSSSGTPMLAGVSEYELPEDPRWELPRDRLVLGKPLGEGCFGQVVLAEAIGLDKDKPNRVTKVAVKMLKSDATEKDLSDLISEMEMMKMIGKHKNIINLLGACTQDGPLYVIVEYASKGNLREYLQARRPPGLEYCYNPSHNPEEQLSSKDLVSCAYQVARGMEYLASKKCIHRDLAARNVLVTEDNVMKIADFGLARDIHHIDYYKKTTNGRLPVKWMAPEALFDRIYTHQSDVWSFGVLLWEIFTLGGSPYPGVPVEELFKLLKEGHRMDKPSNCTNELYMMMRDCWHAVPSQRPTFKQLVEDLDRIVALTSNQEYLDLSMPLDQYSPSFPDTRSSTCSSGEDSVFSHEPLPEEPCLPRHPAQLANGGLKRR
Nature of the assay: pERK potency assay (In Cell ELISA), DMS114 cells. The following applies: DMS114 (FGFR1 amplification) cells, 3 hours.
Source text: as §1

A further assay deals with T3, FGFR3 (Homo sapiens, UniProt P22607).
T3 construct: RT112 (FGFR3 overexpression/FGFR3-TACC3 fusion); host or cells: RT112; the other entry of the earlier key: TACC3 (Q9Y6A5, Transforming acidic coiled-coil-containing protein 3)
Briefly: pERK potency assay (In Cell ELISA), RT112 cells. To be noted: RT112 (FGFR3 overexpression/FGFR3-TACC3 fusion) cells, 3 hours.
Source text: as §1

The structures appear in SMILES notation.

T1 sequence (P21802 22-821 K310R/N549K): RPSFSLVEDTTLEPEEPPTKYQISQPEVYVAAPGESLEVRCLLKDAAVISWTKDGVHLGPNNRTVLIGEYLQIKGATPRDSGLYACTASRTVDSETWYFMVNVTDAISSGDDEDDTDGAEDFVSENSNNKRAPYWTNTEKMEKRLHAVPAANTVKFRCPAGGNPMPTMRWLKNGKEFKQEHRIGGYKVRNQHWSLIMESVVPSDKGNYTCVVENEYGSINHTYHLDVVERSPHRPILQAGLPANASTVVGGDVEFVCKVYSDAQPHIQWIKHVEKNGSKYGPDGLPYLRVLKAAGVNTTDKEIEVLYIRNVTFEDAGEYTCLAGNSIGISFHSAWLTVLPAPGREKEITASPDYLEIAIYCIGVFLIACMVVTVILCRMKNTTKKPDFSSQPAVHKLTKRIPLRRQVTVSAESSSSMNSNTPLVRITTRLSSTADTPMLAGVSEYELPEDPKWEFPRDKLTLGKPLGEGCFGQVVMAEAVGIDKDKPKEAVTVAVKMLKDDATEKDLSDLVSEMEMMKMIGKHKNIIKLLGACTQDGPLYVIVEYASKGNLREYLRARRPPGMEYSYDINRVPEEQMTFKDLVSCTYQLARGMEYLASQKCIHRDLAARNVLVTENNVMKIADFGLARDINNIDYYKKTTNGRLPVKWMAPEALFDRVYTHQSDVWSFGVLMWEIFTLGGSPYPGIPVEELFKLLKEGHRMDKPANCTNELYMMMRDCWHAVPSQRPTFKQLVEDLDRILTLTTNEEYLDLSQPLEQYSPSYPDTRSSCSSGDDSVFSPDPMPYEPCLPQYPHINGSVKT

The IC50 is the concentration that inhibits the measured activity by half. `C=CC(=O)N1CCC2(CC=C(c3c(-c4ccc(F)cc4)c4c(N)ncnc4n3C)CO2)CC1` [Example 41, 1-(3-(4-amino-5-(4-fluorophenyl)-7-methyl-7H-pyrrolo[2,3-d]pyrimidin-6-yl)-1-oxa-9-azaspiro[5.5]undec-3-en-9-yl)prop-2-en-1-one]: at FGFR2, the 50% inhibitory concentration (IC50) was 1 to 10 nM, the “FGFR1 IC50/FGFR2 IC50” value is listed as “H (a selectivity ratio greater than 500 but less than or equal to 1000)” and the “FGFR3 IC50/FGFR2 IC50” value was “H (a selectivity ratio greater than 500 but less than or equal to 1000)”. In addition, the IC50 at FGFR1 was greater than 100 nM. The IC50 on FGFR3 was greater than 100 nM.
`C=CC(=O)N1CCC2(CC=C(c3c(-c4ncc(OC5COC5)cn4)c4c(N)ncnc4n3C)CC2)CC1` [Example 46, 1-(9-(4-amino-7-methyl-5-(5-(oxetan-3-yloxy)pyrimidin-2-yl)-7H-pyrrolo[2,3-d]pyrimidin-6-yl)-3-azaspiro[5.5]undec-8-en-3-yl)prop-2-en-1-one]: at FGFR2, the IC50 fell in the range of 1 to 10 nM, the “FGFR1 IC50/FGFR2 IC50” value is reported as “H (a selectivity ratio greater than 500 but less than or equal to 1000)” and the “FGFR3 IC50/FGFR2 IC50” value is listed as “J (a selectivity ratio greater than 2000)”. Further, at FGFR1, the half-maximal inhibitory concentration (IC50) is greater than 100 nM. Also, the IC50 on FGFR3 was greater than 100 nM.
Regarding `C=CC(=O)N1CCC2(CC=C(c3c(-c4ncc5c(n4)CCO5)c4c(N)ncnc4n3C)CC2)CC1` [Example 48, 1-(9-(4-amino-5-(6,7-dihydrofuro[3,2-d]pyrimidin-2-yl)-7-methyl-7H-pyrrolo[2,3-d]pyrimidin-6-yl)-3-azaspiro[5.5]undec-8-en-3-yl)prop-2-en-1-one], at FGFR2, the concentration for half-maximal inhibition (IC50) fell in the range of 1 to 10 nM, the “FGFR1 IC50/FGFR2 IC50” value is on record as “H (a selectivity ratio greater than 500 but less than or equal to 1000)” and the “FGFR3 IC50/FGFR2 IC50” value is “J (a selectivity ratio greater than 2000)”. In addition, on FGFR1, the half-inhibitory concentration (IC50) was greater than 100 nM. Also, the IC50 on FGFR3 was greater than 100 nM.
Regarding `C=CC(=O)N1CCC2(CC=C(c3c(-c4ncccc4F)c4c(N)ncnc4n3C)CC2)CC1` [Example 49, 1-(9-(4-amino-5-(3-fluoropyridin-2-yl)-7-methyl-7H-pyrrolo[2,3-d]pyrimidin-6-yl)-3-azaspiro[5.5]undec-8-en-3-yl)prop-2-en-1-one], on FGFR2, the IC50 lay in the range of 30 to 100 nM, the “FGFR1 IC50/FGFR2 IC50” value is recorded as “G (a selectivity ratio greater than 150 but less than or equal to 500)” and the “FGFR3 IC50/FGFR2 IC50” value is listed as “G (a selectivity ratio greater than 150 but less than or equal to 500)”. In addition, the IC50 at FGFR1 is greater than 100 nM. Also, the half-inhibitory concentration (IC50) at FGFR3 was greater than 100 nM.
Take `C=CC(=O)N1CCC2(CC=C(c3c(-c4ncco4)c4c(N)ncnc4n3C)CC2)CC1` [Example 53, 1-(9-(4-amino-7-methyl-5-(oxazol-2-yl)-7H-pyrrolo[2,3-d]pyrimidin-6-yl)-3-azaspiro[5.5]undec-8-en-3-yl)prop-2-en-1-one]: the IC50 on FGFR2, on FGFR1 and on FGFR3 was greater than 100 nM in each case.
Consider `C=CC(=O)N1CCC2(CC=C(c3c(-c4ncccn4)c4c(N)ncnc4n3CCO)CC2)CC1` [Example 54, 1-(9-(4-amino-7-(2-hydroxyethyl)-5-(pyrimidin-2-yl)-7H-pyrrolo[2,3-d]pyrimidin-6-yl)-3-azaspiro[5.5]undec-8-en-3-yl)prop-2-en-1-one], for which the figures for the IC50 at FGFR2, on FGFR1 and on FGFR3 were 1 to 10 nM, greater than 100 nM and greater than 100 nM, respectively. The “FGFR1 IC50/FGFR2 IC50” value at FGFR2 was “F (a selectivity ratio greater than 50 but less than or equal to 150)”. In addition, at FGFR2, the “FGFR3 IC50/FGFR2 IC50” value is given as “G (a selectivity ratio greater than 150 but less than or equal to 500)”.
Take `C=CC(=O)N1CCC2(CC=C(c3c(C4COC4)c4c(N)ncnc4n3C)CC2)CC1` [Example 55, 1-(9-(4-amino-7-methyl-5-(oxetan-3-yl)-7H-pyrrolo[2,3-d]pyrimidin-6-yl)-3-azaspiro[5.5]undec-8-en-3-yl)prop-2-en-1-one]: the IC50 was no more than 1 nM on FGFR2, 10 to 30 nM on FGFR1 and 30 to 100 nM on FGFR3. Moreover, on FGFR2, the “FGFR3 IC50/FGFR2 IC50” value is recorded as “F (a selectivity ratio greater than 50 but less than or equal to 150)”.
For the molecule `C=CC(=O)N1CCC2(CC=C(c3c(-c4ccncn4)c4c(N)ncnc4n3C)CC2)CC1` [Example 60, 1-(9-(4-amino-7-methyl-5-(pyrimidin-4-yl)-7H-pyrrolo[2,3-d]pyrimidin-6-yl)-3-azaspiro[5.5]undec-8-en-3-yl)prop-2-en-1-one], the figures for the concentration for half-maximal inhibition (IC50) at FGFR2, at FGFR1 and at FGFR3 were 10 to 30 nM, greater than 100 nM and greater than 100 nM, respectively. For the same molecule, at FGFR2, the “FGFR3 IC50/FGFR2 IC50” value is “F (a selectivity ratio greater than 50 but less than or equal to 150)”.
For `C=CC(=O)N1CCC2(CC=C(c3c(-c4cccnn4)c4c(N)ncnc4n3C)CC2)CC1` [Example 61, 1-(9-(4-amino-7-methyl-5-(pyridazin-3-yl)-7H-pyrrolo[2,3-d]pyrimidin-6-yl)-3-azaspiro[5.5]undec-8-en-3-yl)prop-2-en-1-one], the IC50 at FGFR2 was 10 to 30 nM; on FGFR1, greater than 100 nM; at FGFR3 it was greater than 100 nM. In addition, the “FGFR1 IC50/FGFR2 IC50” value at FGFR2 is listed as “G (a selectivity ratio greater than 150 but less than or equal to 500)”. Moreover, the “FGFR3 IC50/FGFR2 IC50” value on FGFR2 is recorded as “G (a selectivity ratio greater than 150 but less than or equal to 500)”.
